In BindingDB's records for doi:10.7270/Q2319T8T (The Scripps Research Institute Molecular Screening Center, 2007):
Structures can show the parent of a compound that is named as a salt.

Biological target: Steroidogenic factor 1 (Homo sapiens, UniProt Q13285)
Test: SF-1 inhibitor potency, dose response, cell-based, CHO-K1, Gal4-SF-1 LBD, luciferase luminescence (AID 600)
[1] = inactive by the depositor's call

Sequence of Steroidogenic factor 1 (Q13285 whole entry, the tested form may be a part): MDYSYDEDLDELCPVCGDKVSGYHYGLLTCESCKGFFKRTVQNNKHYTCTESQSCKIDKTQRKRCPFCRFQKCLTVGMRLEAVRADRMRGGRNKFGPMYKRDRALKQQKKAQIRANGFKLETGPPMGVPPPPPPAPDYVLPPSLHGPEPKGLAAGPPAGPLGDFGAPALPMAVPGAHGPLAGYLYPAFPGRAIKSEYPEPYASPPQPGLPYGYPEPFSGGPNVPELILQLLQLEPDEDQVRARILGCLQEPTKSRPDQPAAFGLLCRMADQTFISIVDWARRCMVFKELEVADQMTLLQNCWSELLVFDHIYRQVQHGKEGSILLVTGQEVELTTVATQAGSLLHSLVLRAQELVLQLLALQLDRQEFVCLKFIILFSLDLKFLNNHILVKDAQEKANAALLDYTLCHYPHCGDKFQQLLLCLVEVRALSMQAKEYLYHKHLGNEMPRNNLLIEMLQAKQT

| Structure (SMILES) | IC50 [µM] | IC50 [1] [µM] |
| --- | --- | --- |
| COc1cccc(-c2nnc(NC(=O)c3ccc(S(=O)(=O)N4CC(C)OC(C)C4)cc3)o2)c1 (stereo unspecified) [4-(2,6-dimethylmorpholin-4-yl)sulfonyl-N-[5-(3-methoxyphenyl)-1,3,4-oxadiazol-2-yl]benzamide] | > 3.67 |  |
| CC1CCCCN1S(=O)(=O)c1ccc(C(=O)Nc2nnc(-c3cccs3)o2)cc1 (stereo unspecified) [4-(2-methylpiperidin-1-yl)sulfonyl-N-(5-thiophen-2-yl-1,3,4-oxadiazol-2-yl)benzamide] |  | 17.7 |
| CC1CCCN(c2ncnc3c2cnn3-c2ccccc2)C1 (stereo unspecified) [4-(3-methyl-1-piperidinyl)-1-phenylpyrazolo[3,4-d]pyrimidine] | 6.8 |  |
| c1ccc(-n2nnc3c(N4CCOCC4)ncnc32)cc1 [4-(3-phenyl-7-triazolo[4,5-d]pyrimidinyl)morpholine] | > 99 |  |
| COc1ccc(-c2nnc(NC(=O)c3ccc(S(=O)(=O)N4COCC4(C)C)cc3)o2)cc1 [4-(4,4-dimethyloxazolidin-3-yl)sulfonyl-N-[5-(4-methoxyphenyl)-1,3,4-oxadiazol-2-yl]benzamide] |  | 13.5 |
| c1ccc(N2CCN(c3nc(-c4ccccn4)nc4ccccc34)CC2)cc1 [4-(4-phenyl-1-piperazinyl)-2-(2-pyridinyl)quinazoline] | 5.65 |  |
| CCc1ccc2oc(-c3ccc(N)cc3)nc2c1 [4-(5-ethyl-1,3-benzoxazol-2-yl)aniline] | > 3.67 |  |
| CCOc1ccc(-c2cc(CCCC(=O)NCCc3ccc(OC)c(OC)c3OC)no2)cc1 [4-(5-p-phenetylisoxazol-3-yl)-N-[2-(2,3,4-trimethoxyphenyl)ethyl]butyramide] | 7.53 |  |
| Cc1ccc2[nH]c3c(N4CCCCCC4)ncnc3c2c1 [4-(azepan-1-yl)-8-methyl-5H-pyrimido[5,4-b]indole] |  | 10.9 |
| CCOC(=O)c1cnc(-n2nc(C)cc2C)nc1NC1CCCCC1 [4-(cyclohexylamino)-2-(3,5-dimethyl-1-pyrazolyl)-5-pyrimidinecarboxylic acid ethyl ester] | 5.67 |  |
| CCCCN(CCCC)S(=O)(=O)c1ccc(C(=O)Nc2nnc(CSC)o2)cc1 [4-(dibutylsulfamoyl)-N-[5-(methylsulfanylmethyl)-1,3,4-oxadiazol-2-yl]benzamide] |  | 16.5 |
| CSCc1nnc(NC(=O)c2ccc(S(=O)(=O)N(CC(C)C)CC(C)C)cc2)o1 [4-(diisobutylsulfamoyl)-N-[5-[(methylthio)methyl]-1,3,4-oxadiazol-2-yl]benzamide] | > 11 |  |
| CC1CCCCC1NS(=O)(=O)c1ccc(S(=O)(=O)NCc2ccncc2)cc1 (stereo unspecified) [4-N-(2-methylcyclohexyl)-1-N-(pyridin-4-ylmethyl)benzene-1,4-disulfonamide] | > 33 |  |
| CCN(C1CCCCC1)S(=O)(=O)c1ccc(S(=O)(=O)NCc2ccncc2)cc1 [4-N-cyclohexyl-4-N-ethyl-1-N-(pyridin-4-ylmethyl)benzene-1,4-disulfonamide] |  | 19.5 |
| Cc1cccc(-n2ncc3c(N4CCOCC4)ncnc32)c1 [4-[1-(3-methylphenyl)-4-pyrazolo[3,4-d]pyrimidinyl]morpholine] | 4.02 |  |
| CCOC(=O)N1CCN(C(=O)C2CCN(c3ncnc4c3sc3cccc(F)c34)CC2)CC1 [4-[1-(9-fluorobenzothiopheno[3,2-d]pyrimidin-4-yl)isonipecotoyl]piperazine-1-carboxylic acid ethyl ester] | 7.93 |  |
| COC(=O)c1ccc(-n2c(O)cc(N3CCC(n4c(=O)[nH]c5ccccc54)CC3)c2O)cc1 [4-[2,5-dioxo-3-[4-(2-oxo-3H-benzimidazol-1-yl)-1-piperidinyl]-1-pyrrolidinyl]benzoic acid methyl ester] | > 99 |  |
| COc1ccc(OC)c(Nc2nc(-c3ccc(O)c(O)c3)cs2)c1 [4-[2-(2,5-Dimethoxy-phenylamino)-thiazol-4-yl]-benzene-1,2-diol] | > 3.67 |  |
| COC(=O)c1ccc(Oc2cc(C)nc(-n3nc(C)cc3C)n2)cc1 [4-[2-(3,5-dimethylpyrazol-1-yl)-6-methyl-pyrimidin-4-yl]oxybenzoic acid methyl ester] | 8.58 |  |
| COc1ccccc1-c1nnc2sc(-c3ccc(N(C)C)cc3)nn12 [4-[3-(2-methoxyphenyl)-[1,2,4]triazolo[3,4-b][1,3,4]thiadiazol-6-yl]-N,N-dimethyl-aniline] | 6.26 |  |
| O=C(Oc1ccc(-c2nc(-c3ccccn3)no2)cc1)c1ccccc1 [4-[3-(2-pyridinyl)-1,2,4-oxadiazol-5-yl]phenyl benzoate] | 6.83 |  |
| COc1ccc(-c2noc(CCCC(=O)NCCc3ccccc3)n2)cc1OC [4-[3-(3,4-dimethoxyphenyl)-1,2,4-oxadiazol-5-yl]-N-(2-phenylethyl)butanamide] | 4.15 |  |
| COc1ccc(-c2noc(CCCC(=O)O)n2)cc1 [4-[3-(4-methoxyphenyl)-1,2,4-oxadiazol-5-yl]butanoic acid] | 0.625 |  |
| Fc1ccc2[nH]c3c(N4CCN(Cc5ccc6c(c5)OCO6)CC4)ncnc3c2c1 [4-[4-(1,3-benzodioxol-5-ylmethyl)-1-piperazinyl]-8-fluoro-5H-pyrimido[5,4-b]indole] | 7.8 |  |
| COc1ccc2c(c1)[nH]c1c(N3CCN(Cc4ccc5c(c4)OCO5)CC3)ncnc12 [4-[4-(1,3-benzodioxol-5-ylmethyl)piperazin-1-yl]-7-methoxy-5H-pyrimido[5,4-b]indole] |  | 13.2 |
| COc1cccc(N2CCN(c3ncnc4c3[nH]c3ccccc34)CC2C)c1 (stereo unspecified) [4-[4-(3-methoxyphenyl)-3-methyl-1-piperazinyl]-5H-pyrimido[5,4-b]indole] |  | 28.6 |

| Structure (SMILES) | IC50 [µM] | IC50 [1] [µM] |
| --- | --- | --- |
| Oc1ccc(N2CCN(c3ncnc4sc5c(c34)CCC5)CC2)cc1 [4-[4-(7,8-dihydro-6H-cyclopenta[4,5]thieno[1,2-c]pyrimidin-1-yl)-1-piperazinyl]phenol] |  | 13.7 |
| Clc1ccc(OCCN2CCN(c3ncnc4sccc34)CC2)cc1 [4-[4-[2-(4-chloranylphenoxy)ethyl]piperazin-1-yl]thieno[2,3-d]pyrimidine] | 3.44 |  |
| Cn1nc(CC(=O)Nc2ccc(N3CCN(C(=O)OC(C)(C)C)CC3)cc2)c2ccccc2c1=O [4-[4-[[2-(3-methyl-4-oxo-1-phthalazinyl)-1-oxoethyl]amino]phenyl]-1-piperazinecarboxylic acid tert-butyl ester] | 2.55 |  |
| CCOc1ccc(-c2cc(CCCC(=O)NCCCOC)no2)cc1 [4-[5-(4-ethoxyphenyl)-1,2-oxazol-3-yl]-N-(3-methoxypropyl)butanamide] | 4.46 |  |
| CCOC(=O)N1CCC(NC(=O)C2CCCN(Cc3nc(-c4cccc(Cl)c4)oc3C)C2)CC1 (stereo unspecified) [4-[[1-[[2-(3-chlorophenyl)-5-methyl-oxazol-4-yl]methyl]nipecotoyl]amino]piperidine-1-carboxylic acid ethyl ester] |  | 11.3 |
| COc1cc(CN2CCN(c3cc(C)ccc3C)CC2)ccc1O [4-[[4-(2,5-dimethylphenyl)-1-piperazinyl]methyl]-2-methoxyphenol] | 4.07 |  |
| COc1cc(CN=O)ccc1OCc1ccc(C(=O)O)cc1 [4-[[4-(hydroximinomethyl)-2-methoxy-phenoxy]methyl]benzoic acid] | 1.16 |  |
| CCN(CC)c1ccc2cc(NC(=O)CCC(=O)O)c(=O)oc2c1 [4-[[7-(diethylamino)-2-keto-chromen-3-yl]amino]-4-keto-butyric acid] | 5.11 |  |
| CN(CC1CCCO1)S(=O)(=O)c1ccc(C(=O)Nc2nc(-c3ccccn3)cs2)cc1 (stereo unspecified) [4-[methyl(2-oxolanylmethyl)sulfamoyl]-N-[4-(2-pyridinyl)-2-thiazolyl]benzamide] | > 3.67 |  |
| CC(=O)c1c(C)[nH]c(C(=O)OCCCCN2C(=O)c3ccccc3C2=O)c1C [4-acetyl-3,5-dimethyl-1H-pyrrole-2-carboxylic acid 4-(1,3-dioxo-2-isoindolyl)butyl ester] | 2.6 |  |
| Nc1nonc1C(=O)NCCNCc1cc(Br)ccc1OCc1ccc(F)cc1 [4-amino-N-[2-[[5-bromo-2-(4-fluorobenzyl)oxy-benzyl]amino]ethyl]furazan-3-carboxamide;hydrochloride] | 4.46 |  |
| CCCCOc1ncnc2c1[nH]c1ccc(F)cc12 [4-butoxy-8-fluoranyl-5H-pyrimido[5,4-b]indole] |  | 11.4 |
| CCCCOc1ccc(S(=O)(=O)Nc2cccnc2)cc1 [4-butoxy-N-(3-pyridinyl)benzenesulfonamide] |  | 25 |
| COC(=O)c1nn(-c2ccc(-c3ccccc3)cc2)cc1O [4-hydroxy-1-(4-phenylphenyl)-3-pyrazolecarboxylic acid methyl ester] | > 33 |  |
| Cc1ccc(-c2cnc(NC(=O)CCC(=O)N3CCCCC3)n2C)cc1 [4-keto-N-[1-methyl-5-(p-tolyl)imidazol-2-yl]-4-piperidino-butyramide] | > 99 |  |
| COc1ccc(C(=O)Nn2c(SCC(=O)NCC3CCCO3)nc3ccccc3c2=O)cc1 (stereo unspecified) [4-methoxy-N-[4-oxidanylidene-2-[2-oxidanylidene-2-(oxolan-2-ylmethylamino)ethyl]sulfanyl-quinazolin-3-yl]benzamide] | 4.29 |  |
| COc1ccc(C(=O)NC(=O)Nc2cc(C)ccn2)cc1 [4-methoxy-N-[(4-methyl-2-pyridyl)carbamoyl]benzamide] | > 1.22 |  |
| CCOc1ccc(OCc2cccc(C(=O)N3CCOCC3)c2)cc1 [4-{3-[(4-ethoxyphenoxy)methyl]benzoyl}morpholine] | > 1.22 |  |
| Cc1c2ccncc2c(C)c2c1[nH]c1ccccc12 [5,11-dimethyl-2H-pyrido[4,3-b]carbazole] | > 3.67 |  |
| O=C(NC1CC1)c1ccc(-c2nc3ccccc3s2)s1 [5-(1,3-benzothiazol-2-yl)-N-cyclopropyl-2-thiophenecarboxamide] | 2.81 |  |
| Cc1oc(-c2ccc3c(c2)OCCO3)cc1C(=O)O [5-(2,3-dihydro-1,4-benzodioxin-6-yl)-2-methyl-3-furancarboxylic acid] | 5.55 |  |
| COc1ccc(-c2nc(-c3ccccc3)no2)c(OC)c1 [5-(2,4-dimethoxyphenyl)-3-phenyl-1,2,4-oxadiazole] | 3.52 |  |
| Cc1ccc(-c2nc(-c3ccccc3)no2)c(Cl)c1 [5-(2-chloranyl-4-methyl-phenyl)-3-phenyl-1,2,4-oxadiazole] | 4.71 |  |
| c1ccc(-c2noc(-c3ccc4ccccc4c3)n2)cc1 [5-(2-naphthalenyl)-3-phenyl-1,2,4-oxadiazole] | 8.89 |  |
| Clc1ccc(-c2nc(-c3ccccn3)no2)cc1Cl [5-(3,4-dichlorophenyl)-3-(2-pyridinyl)-1,2,4-oxadiazole] | 5.62 |  |
